Where two headings read alike, the source gives them in different places.

One series concerns KKAY mice. The series is described as follows: Hypoglycemic and hypolipidemic actions in mice (Test Example 1). Format: in vivo. The conditions noted are these: Mus musculus, po, 96 h, 0.005% in powdery diet, four days, non-treated group taken as 100%. As to the method:
Test compounds were mixed in a powdery diet (CE-2, Japan Clea) at the concentration of 0.005%, and freely given to KKAY mice (9 to 12 weeks old, 5 mice in a group), a model of obese and non-insulin dependent diabetes (type 2 diabetes), for four days. During this period, water was given freely. Blood was sampled from orbital venous plexus, and glucose and triglyceride levels in plasma separated from blood were determined enzymatically using L type Wako Glu2 (Wako Pure Chemical Industries, Ltd.) or L type Wako TG·H (Wako Pure Chemical Industries, Ltd.), respectively.
In the table, “hypoglycemic action (%)” means the rate of decrease (%) in the blood glucose level of the treated group when the blood glucose level of the non-treated group is taken as 100%. In addition, the “hypolipidemic action (%)” means the rate of decrease (%) in the blood triglyceride level of the treated group when the blood triglyceride level of the non-treated group is taken as 100%.

A further series addresses T1, PPARδ-RXRα heterodimer (Homo sapiens, UniProt Q03181).
T1 construct: expressed in transfected cells; host or cells: COS-1
T1 sequence (Q03181 1-441): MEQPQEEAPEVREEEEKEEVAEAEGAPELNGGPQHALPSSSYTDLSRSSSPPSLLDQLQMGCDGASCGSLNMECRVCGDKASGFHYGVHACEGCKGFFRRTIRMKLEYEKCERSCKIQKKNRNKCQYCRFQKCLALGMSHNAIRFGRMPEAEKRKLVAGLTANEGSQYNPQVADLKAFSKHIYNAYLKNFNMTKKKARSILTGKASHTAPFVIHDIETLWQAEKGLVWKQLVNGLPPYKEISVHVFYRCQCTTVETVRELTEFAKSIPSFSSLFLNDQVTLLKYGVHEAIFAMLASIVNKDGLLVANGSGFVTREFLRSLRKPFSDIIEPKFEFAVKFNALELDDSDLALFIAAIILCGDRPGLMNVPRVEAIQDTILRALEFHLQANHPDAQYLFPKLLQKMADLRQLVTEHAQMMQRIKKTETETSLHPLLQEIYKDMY
T1 sequence (P19793 1-462 partner): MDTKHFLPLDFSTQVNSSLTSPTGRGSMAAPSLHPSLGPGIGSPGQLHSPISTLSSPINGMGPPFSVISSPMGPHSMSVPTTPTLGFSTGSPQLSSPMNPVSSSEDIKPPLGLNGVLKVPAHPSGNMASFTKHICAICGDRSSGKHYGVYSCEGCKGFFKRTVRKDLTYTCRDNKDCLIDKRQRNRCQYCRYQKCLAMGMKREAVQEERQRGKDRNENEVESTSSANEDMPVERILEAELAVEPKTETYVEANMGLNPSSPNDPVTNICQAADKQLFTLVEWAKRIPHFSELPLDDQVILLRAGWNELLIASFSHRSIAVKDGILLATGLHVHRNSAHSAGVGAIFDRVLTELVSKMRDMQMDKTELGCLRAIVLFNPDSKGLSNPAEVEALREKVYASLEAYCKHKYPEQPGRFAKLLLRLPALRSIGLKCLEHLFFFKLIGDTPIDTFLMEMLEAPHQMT
As to the kind of experiment: PPARδ-RXRα heterodimer ligand activity, luciferase reporter in COS-1 transformant (Test Example 4). The format is cell-based. The settings on record: COS-1 transformant (hPPARδ, hRXRα, reporter), 36-48 hours, concentration for 50% of the maximum fold induction. The protocol:
The transformant obtained in Reference Example 9a was suspended in DMEM medium (produced by Life Technologies, Inc., USA) containing 0.1% fatty acid-free bovine serum albumin (BSA) (produced by Wako Pure Chemical Industries, Ltd.), and inoculate to each well of a 96-well white plate (produced by Corning Costar Corporation, USA) by 80 μl at 1×10^4 cells/well. Then the test compound (20 μl) was added and cultured at 37° C. under 5% CO2 for 36-48 hours. After removing the medium from the 96-well white plate, 40 μl of PIKKAGENE LT 7.5 (produced by Wako Pure Chemical Industries, Ltd.) diluted twice with HBSS (HANKS' BALANCED SALT SOLUTION)(produced by BIO WHITTAKER Inc., USA), was added. After stirring, the luciferase activity was determined using 1420 ARVO Multilabel Counter (produced by PerkinElmer Inc., USA).
A fold induction was calculated based on the luciferase activity of each test compound by taking the luciferase activity in the non-treatment group as 1. The values of the test compound concentration and the fold induction were analyzed using PRISM (produced by GraphPad Software Inc. USA) to calculate the EC50 values, the effective concentration of a test compound for 50% of the maximum fold induction.
COS-1 cells were inoculated to a 150 cm^2 cell culture flask (produced by Corning Costar Corporation, USA) at the density of 5×10^6 cells/50 ml, and cultured at 37° C. under 5% CO2 conditions for 24 hours. Subsequently, a DNA was introduced into the cell under the condition shown below using Lipofectamine (produced by Invitrogen, USA).
First, Lipofectamine (125 μl), PLUS Reagent (100 μl, produced by Invitrogen, USA), plasmid pMCMVneo-hPPARδ (2.5 μg) obtained in Reference Example 3a, plasmid pMCMVneo-hRXRα (2.5 μg) obtained in Reference Example 4a and reporter plasmid pGL3-4ERPP-TK neo (5 μg) obtained in Reference Example 5a, and pRL-tk (5 μg, produced by Promega, USA) were mixed with opti-MEM (5 ml, produced by Invitrogen, USA) to give a transfection mixture.
Then, the above-mentioned transfection mixture and opti-MEM (20 ml) were added to COS-1 cells washed with opti-MEM, and the cells were cultured at 37° C. under 5% CO2 conditions for 3 hours. DMEM medium (25 ml, produced by Life Technologies, Inc., USA) containing 0.1% fatty acid-free bovine serum albumin (BSA) (produced by Wako Pure Chemical Industries, Ltd.) was added to the obtained COS-1 cells, and the cells were cultured at 37° C. under 5% CO2 conditions for 18-24 hours to give a transformant.

Where [1] appears, read: rate of decrease in blood glucose level, read-out: Hypoglycemic action (%).
The mark [2] stands for this setting: rate of decrease in blood triglyceride level, read-out: Hypolipidemic action (%).

With `COc1cccc(CC(=O)O)c1OCCCCc1cn(-c2ccc(C(F)(F)F)cn2)nc1C(C)C` [Example 180, [2-(4-{3-isopropyl-1-[5-(trifluoromethyl)-2-pyridyl]-1H-pyrazol-4-yl}butoxy)-3-methoxyphenyl]acetic acid], the melting point is 144 to 145 °C. Moreover, in the series with KKAY mice (setting [1]), the inhibition in vivo at 0.005 % in diet came to 32%. In addition, the inhibition in vivo at 0.005 % in diet in the series on KKAY mice (setting [2]) worked out at 36%.

As for `CCOc1nn(-c2ccc(C(F)(F)F)cc2)cc1CCCOc1cc(CCC(=O)O)n(-c2ccccc2)n1` [Example 111, 3-[3-(3-{3-ethoxy-1-[4-(trifluoromethyl)phenyl]-1H-pyrazol-4-yl}propoxy)-1-phenyl-1H-pyrazol-5-yl]propanoic acid], the melting point lay within 126 to 127 °C. This molecule displayed an EC50 at PPARδ-RXRα heterodimer of 6.1 nM.

In turn, `COc1cccc(CC(=O)O)c1OCCCc1cn(-c2ncc(C(F)(F)F)cc2Cl)nc1C(C)C` [Example 217, [2-(3-{1-[3-chloro-5-(trifluoromethyl)-2-pyridyl]-3-isopropyl-1H-pyrazol-4-yl}propoxy)-3-methoxyphenyl]acetic acid] had a melting point of 96 to 97 °C. Also, in the series with KKAY mice (setting [1]), the inhibition in vivo at 0.005 % in diet is 34%. Moreover, the inhibition in vivo at 0.005 % in diet with KKAY mice (setting [2]) was determined as 18%.

“calcium 2-[3-(4-{3-ethoxy-1-[5-(trifluoromethyl)-2-pyridinyl]-1H-pyrazol-4-yl}butoxy)phenoxy]-2-methylpropanoate [Example 102]” registered an EC50 at PPARδ-RXRα heterodimer of 9.1 nM.

For the molecule `CC(C)c1nn(-c2ccc(C(F)(F)F)cn2)cc1CCCOc1c(F)cccc1CC(=O)O` [Example 207, [3-fluoro-2-(3-{3-isopropyl-1-[5-(trifluoromethyl)-2-pyridyl]-1H-pyrazol-4-yl}propoxy)phenyl]acetic acid], the melting point was 140 to 141 °C. For the same molecule, the inhibition in vivo at 0.005 % in diet with KKAY mice (setting [1]) came to 49%. In the series with KKAY mice (setting [2]), the inhibition in vivo at 0.005 % in diet was found to be 72%.

Consider `CC(C)c1nn(-c2ccc(C(F)(F)F)cn2)cc1CCCCOc1cccc(CC(=O)O)c1` [Example 51, [3-(4-{3-isopropyl-1-[5-(trifluoromethyl)-2-pyridinyl]-1H-pyrazol-4-yl}butoxy)phenyl]acetic acid], for which the EC50 on PPARδ-RXRα heterodimer amounted to 3.9 nM.

Turning to `CCc1cccc(CC(=O)O)c1OCCCc1cn(-c2ccc(C(F)(F)F)cn2)nc1C(CC)CC` [Example 241, [3-ethyl-2-(3-{3-(1-ethylpropyl)-1-[5-(trifluoromethyl)-2-pyridinyl]-1H-pyrazol-4-yl}propoxy)phenyl]acetic acid], the melting point is 130 to 131 °C. The inhibition in vivo at 0.005 % in diet with KKAY mice (setting [1]) worked out at 38%. The inhibition in vivo at 0.005 % in diet in the series on KKAY mice (setting [2]) is 27%.

With “calcium 3-[3-ethoxy-1-(4-{3-ethoxy-1-[5-(trifluoromethyl)-2-pyridinyl]-1H-pyrazol-4-yl}butyl)-1H-pyrazol-4-yl]propanoate [Example 110]”, the EC50 at PPARδ-RXRα heterodimer turned out to be 4.6 nM.

`CCc1cccc(CC(=O)O)c1OCCCc1cn(-c2ccc(Br)cn2)nc1C(C)C` [Example 247, (2-{3-[1-(5-bromo-2-pyridinyl)-3-isopropyl-1H-pyrazol-4-yl]propoxy}-3-ethylphenyl)acetic acid] had a melting point of 152 °C. For the same molecule, the inhibition in vivo at 0.005 % in diet in the series on KKAY mice (setting [1]) was determined as 25%. Further, in the series with KKAY mice (setting [2]), the inhibition in vivo at 0.005 % in diet amounted to 34%.

Take `CCCC(C)c1nn(-c2ccc(C(F)(F)F)cn2)cc1CCCOc1c(C)cccc1CC(=O)O` (centres unmarked) [Example 222, [3-methyl-2-(3-{3-(1-methylbutyl)-1-[5-(trifluoromethyl)-2-pyridyl]-1H-pyrazol-4-yl}propoxy)phenyl]acetic acid]: the melting point fell in the range of 147 to 148 °C. For the same molecule, in the series on KKAY mice (setting [1]), the inhibition in vivo at 0.005 % in diet came out at 36%. In the series on KKAY mice (setting [2]), the inhibition in vivo at 0.005 % in diet was found to be 54%.

On PPARδ-RXRα heterodimer, “calcium 2-[3-(3-{3-ethoxy-1-[4-(trifluoromethyl)phenyl]-1H-pyrazol-4-yl}propoxy)phenoxy]-2-methylpropanoate [Example 105]” came in with an EC50 of 7.2 nM.

The molecule `CC(C)c1nn(-c2ccc(C(F)(F)F)cn2)cc1CCCOc1ccccc1CC(=O)O` [Example 179, [2-(3-{3-isopropyl-1-[5-(trifluoromethyl)-2-pyridyl]-1H-pyrazol-4-yl}propoxy)phenyl]acetic acid] gave a melting point of 132 to 133 °C. Moreover, the inhibition in vivo at 0.005 % in diet in the series on KKAY mice (setting [1]) came out at 34%. Moreover, the inhibition in vivo at 0.005 % in diet with KKAY mice (setting [2]) is 37%.

Regarding `CCCc1nn(-c2ccc(C(F)(F)F)cn2)cc1CCCOc1ccc(CC(=O)O)cc1OC` [Example 79, [3-methoxy-4-(3-{3-propyl-1-[5-(trifluoromethyl)-2-pyridyl]-1H-pyrazol-4-yl}propoxy)phenyl]acetic acid], the melting point was in the range of 121 to 122 °C.

As for `Cc1cnn(CC(=O)O)c1OCCCc1cn(-c2ccc(C(F)(F)F)cn2)nc1C(C)C` [Example 327, [5-(3-{3-isopropyl-1-[5-(trifluoromethyl)-2-pyridinyl]-1H-pyrazol-4-yl}propoxy)-4-methyl-1H-pyrazol-1-yl]acetic acid], the melting point was 123 to 124 °C.

On to `CC(C)c1nn(-c2ccc(C(F)(F)F)cn2)cc1COc1cccc(CC(=O)O)c1` [Example 176, 3-{3-isopropyl-1-[5-(trifluoromethyl)-2-pyridyl]-1H-pyrazol-4-yl}methoxyphenylacetic acid], for which the melting point lay within 114 to 115 °C.

With `CC(C)c1nn(-c2ccc(C(F)(F)F)cn2)cc1CCCCOc1cccc(OC(C)(C)C(=O)O)c1` [Example 54, 2-[3-(4-{3-isopropyl-1-[5-(trifluoromethyl)-2-pyridinyl]-1H-pyrazol-4-yl}butoxy)phenoxy]-2-methylpropanoic acid], the melting point was in the range of 81 to 82 °C.

In turn, `CCOc1nn(-c2ccccn2)cc1CCCOc1cccc(OC(C)(C)C(=O)O)c1` [Example 101, 2-(3-{3-[3-ethoxy-1-(2-pyridinyl)-1H-pyrazol-4-yl]propoxy}phenoxy)-2-methylpropanoic acid] returned a melting point of 99 to 101 °C.

The melting point is the temperature of the solid-liquid transition. Usually EC50 stands for the concentration needed to bring the measured effect to its halfway point. Low readings indicate higher potency in that assay, high ones lower potency in that assay.

For the origin of these results see patent US20060148858A1, “1, 2-Azole derivatives with hypoglycemic and hypolipidemic activity” (priority 2002, published 2006).
